Assay results as given in patent US6458834B2, “Pentacyclic triterpenes” (Micro Flo Company, priority 1998, dated 2002).
Like-named read-outs stand apart in the source and are kept apart here.

Legend:
human leucocyte elastase = molecular target: T1, human leucocyte elastase (Homo sapiens, UniProt P08246); experiment: Human leucocyte elastase (HLE) inhibition, MeO-Suc-Ala-Ala-Pro-Val-pNA substrate; type: biochemical
T1 construct: purchased Elastin Products
T1 sequence (P08246 30-267): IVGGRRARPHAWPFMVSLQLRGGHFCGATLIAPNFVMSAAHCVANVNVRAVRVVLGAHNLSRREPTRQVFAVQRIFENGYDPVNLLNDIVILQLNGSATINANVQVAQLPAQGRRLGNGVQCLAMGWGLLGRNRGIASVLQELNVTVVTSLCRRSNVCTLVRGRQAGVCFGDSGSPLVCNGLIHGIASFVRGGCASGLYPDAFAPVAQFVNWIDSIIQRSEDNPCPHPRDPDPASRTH
Procedure: Stock solutions were mixed to yield a reaction mixture consisting of 0.5 mM MeO-Suc-Ala-Ala-Pro-Val-pNA (Sigma) and […] human leucocyte elastase (Elastin Products) in 0.1 M Tris, 0.5 M NaCl and 3% DMSO (v/v) at a pH of 7.5. Test compounds were solubilized in DMSO. Equal volumes of enzyme and inhibitor were mixed and allowed to incubate for 15 minutes at room temperature. The reaction was started by the addition of a third equal volume containing substrate. Reactions were carried out in microliter plates.

urokinase = urokinase (Homo sapiens, UniProt P00749); experiment: urokinase assay; type: biochemical; conditions: for inhibition at 22 µM: measured at 22 μM
Text: (§1) Thus, PTs appear to bind non-covalently to hydrophobic domains of enzymes and either block an access to the enzyme active site or cause conformational change, both resulting in the enzyme's inability to perform its function.

thrombin = thrombin (Homo sapiens, UniProt P00734); experiment: thrombin assay; type: biochemical
Text: as §1

plasmin = plasmin (Homo sapiens, UniProt P00747); experiment: plasmin assay; type: biochemical; conditions: for inhibition at 22 µM: measured at 22 μM
plasmin, sequence (P00747 581-810 limits assumed, species assumed): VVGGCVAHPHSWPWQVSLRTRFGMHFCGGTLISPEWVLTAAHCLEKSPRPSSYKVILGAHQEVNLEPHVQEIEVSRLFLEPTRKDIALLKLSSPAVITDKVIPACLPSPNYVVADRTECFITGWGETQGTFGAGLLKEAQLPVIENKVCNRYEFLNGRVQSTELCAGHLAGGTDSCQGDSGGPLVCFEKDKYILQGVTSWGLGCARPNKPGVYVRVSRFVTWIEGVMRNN
plasmin, sequence (P00747 97-580 partner limits assumed, species assumed): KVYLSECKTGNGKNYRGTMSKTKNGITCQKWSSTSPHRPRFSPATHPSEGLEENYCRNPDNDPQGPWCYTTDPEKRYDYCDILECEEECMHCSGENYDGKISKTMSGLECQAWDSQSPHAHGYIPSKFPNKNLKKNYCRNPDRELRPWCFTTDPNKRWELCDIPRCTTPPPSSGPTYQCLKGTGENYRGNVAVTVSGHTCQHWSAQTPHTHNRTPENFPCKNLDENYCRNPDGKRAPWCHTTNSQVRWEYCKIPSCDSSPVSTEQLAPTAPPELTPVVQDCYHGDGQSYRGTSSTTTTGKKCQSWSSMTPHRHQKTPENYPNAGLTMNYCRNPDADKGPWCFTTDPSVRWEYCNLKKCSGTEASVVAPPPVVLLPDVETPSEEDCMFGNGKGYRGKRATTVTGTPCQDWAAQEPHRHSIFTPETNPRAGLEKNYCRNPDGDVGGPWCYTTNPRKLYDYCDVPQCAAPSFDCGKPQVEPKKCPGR
Text: as §1

trypsin = molecular target: T2, trypsin (Bos taurus, UniProt P00760); experiment: trypsin assay; type: biochemical
T2 construct: gene PRSS1
T2 sequence (P00760 24-246): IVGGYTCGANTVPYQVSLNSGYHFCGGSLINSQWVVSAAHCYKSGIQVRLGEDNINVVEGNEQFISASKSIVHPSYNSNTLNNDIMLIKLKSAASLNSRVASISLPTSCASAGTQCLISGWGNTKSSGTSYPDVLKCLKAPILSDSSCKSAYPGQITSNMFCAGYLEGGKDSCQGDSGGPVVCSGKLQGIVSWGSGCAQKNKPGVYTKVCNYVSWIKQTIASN
Text: as §1

mites = conditions: cited from earlier work
[1] = 0.1 M Tris, 0.5 M NaCl, 3% DMSO, pH 7.5, 15 min preincubation at room temperature, read-out: IC50

| IC50 (human leucocyte elastase; [1]) | Molecule | IC50 (human leucocyte elastase) | also measured |
| --- | --- | --- | --- |
| – | C=C(C)[C@@H]1CC[C@]2(C)CC[C@]3(C)[C@H](CC[C@@H]4[C@@]5(C)CC[C@H](O)C(C)(C)[C@@H]5CC[C@]43C)[C@@H]12 [Example 5, Lupeol] | 8.4 µM | – |
| – | C=C(C)[C@@H]1CC[C@]2(CO)CC[C@]3(C)[C@H](CC[C@@H]4[C@@]5(C)CC[C@H](O)C(C)(C)[C@@H]5CC[C@]43C)[C@@H]12 [Example 7, Betulin] | 5 µM | – |
| 6.3 µM | C=C(C)[C@@H]1CC[C@]2(COC(=O)CCC(=O)O)CC[C@]3(C)[C@H](CC[C@@H]4[C@@]5(C)CC[C@H](O)C(C)(C)[C@@H]5CC[C@]43C)[C@@H]12 [Example 8, 28-Succinylbetulin] | – | – |
| 5.7 µM | C=C(C)[C@@H]1CC[C@]2(C(=O)OC)CC[C@]3(C)[C@H](CC[C@@H]4[C@@]5(C)CC[C@H](O)C(C)(C)[C@@H]5CC[C@]43C)[C@@H]12 [Example 10, Methyl ester of betulinic acid] | – | – |
| – | C=C(C)C1CCC2(C(=O)O)CCC3(C)C(CCC4C5(C)CCC(OC(C)=O)C(C)(C)C5CCC43C)C12 (stereo not shown) [Example 11, Acetylbetulinic acid] | 7 µM | – |
| 11 µM | C=C(C)[C@@H]1CC[C@]2(C(=O)O)CC[C@]3(C)[C@H](CC[C@@H]4[C@@]5(C)CCC(=O)C(C)(C)[C@@H]5CC[C@]43C)[C@@H]12 [Example 12, 3-Ketobetulinic acid] | – | – |
| – | C=C(C)C1CCC2(C(=O)O)CCC3(C)C(CCC4C5(C)CCC(OS(C)(=O)=O)C(C)(C)C5CCC43C)C12 (stereo not shown) [Example 13, Methanesulfonylbetulinic acid] | 11.2 µM | melting point: 210 to 212 °C |
| 7.3 µM | C=C(C)C1CCC2(C(=O)OC)CCC3(C)C(CCC4C5(C)CCC(OS(C)(=O)=O)C(C)(C)C5CCC43C)C12 (stereo not shown) [Example 14, Methyl ester of 3-methanesulfonylbetulinic acid] | – | – |
| 5.4 µM | CC1(C)CC[C@]2(C)CC[C@]3(C)C(=CC[C@@H]4[C@@]5(C)CC[C@H](O)C(C)(C)[C@@H]5CC[C@]43C)[C@@H]2C1 [Example 15, β-Amyrin] | – | – |
| – | C[C@H]1[C@H](C)CC[C@]2(CO)CC[C@]3(C)C(=CC[C@@H]4[C@@]5(C)CC[C@H](O)C(C)(C)[C@@H]5CC[C@]43C)[C@H]12 [Example 16, Uvaol] | 4.5 µM | – |
| – | C[C@H]1[C@H](C)CC[C@]2(C(=O)O)CC[C@]3(C)C(=CC[C@@H]4[C@@]5(C)CC[C@H](O)C(C)(C)[C@@H]5CC[C@]43C)[C@H]12 [Example 17, Ursolic acid] | 7.7 µM | inhibition at 22 µM (urokinase): 83%; effects towards the mites and their survival (mites): toxicity and feeding deterrent effects; reduction of ingestion time on diet containing ursolic acid (mites; diet containing ursolic acid): about 30%; inhibition at 22 µM (plasmin): 43% |
| 4.9 µM | COC(=O)[C@]12CC[C@@H](C)[C@H](C)[C@H]1C1=CC[C@@H]3[C@@]4(C)CC[C@H](O)C(C)(C)[C@@H]4CC[C@@]3(C)[C@]1(C)CC2 [Example 18, Ursolic acid, Me ester] | – | – |
| – | CC1(C)CC[C@]2(C(=O)O)CC[C@]3(C)C(=CC[C@@H]4[C@@]5(C)CC[C@H](O)C(C)(C)[C@@H]5CC[C@]43C)[C@@H]2C1 [Example 20, Oleanolic acid] | – | inhibition at 22 µM (urokinase): 40%; inhibition at 22 µM (plasmin): 25% |
| – | CC1(C)CC[C@]2(C(=O)O)CC[C@]3(C)C(=CC[C@@H]4[C@@]5(C)CC[C@H](O)[C@@](C)(CO)[C@@H]5CC[C@]43C)[C@@H]2C1 [Example 23, Hederagenin] | 16.8 µM | – |
| – | CC1(C)CC[C@]2(C(=O)O)[C@H](O)C[C@]3(C)C(=CC[C@@H]4[C@@]5(C)CC[C@H](O)[C@@](C)(CO)[C@@H]5CC[C@]43C)[C@@H]2C1 [Example 24, Caulophyllogenin] | – | inhibition of HLE at a single concentration (human leucocyte elastase; @ 21°): 0% @ 21° |

| Molecule | IC50 (human leucocyte elastase; [1]) | IC50 (human leucocyte elastase) | also measured |
| --- | --- | --- | --- |
| C=C(C)[C@@H]1CC[C@]2(C(=O)O)CC[C@]3(C)[C@H](CC[C@@H]4[C@@]5(C)CC[C@H](O)C(C)(C)[C@@H]5CC[C@]43C)[C@@H]12 [Example 9, Betulinic acid] | 3.3 µM | – | IC50 (urokinase): 5 µM; IC50 (thrombin): 2.3 µM; IC50 (plasmin): 6.2 µM; IC50 (trypsin): 8.5 µM |
| COC(=O)[C@]12CCC(C)(C)C[C@H]1C1=CC[C@@H]3[C@@]4(C)CC[C@H](O)C(C)(C)[C@@H]4CC[C@@]3(C)[C@]1(C)CC2 [Example 21, Oleanolic acid, Me ester] | 8.5 µM | – | – |
| Lupeol acetate [Example 6] | 14.9 µM | – | – |
